The values below come from patent US6900200B2, “Tricyclic hydroxy carboxamides and derivatives thereof tocolytic oxytocin receptor antagonists” (Wyeth, priority 2001, dated 2005).

SMILES strings stand for the structures.

As to `COc1cc(C(=O)N2Cc3ccc(C(=O)N(C)C[C@H](O)[C@@H](O)[C@@H](O)[C@H](O)CO)n3Cc3ccccc32)ccc1-c1ccccc1C(F)(F)F` [Example 23, 10-{[2-Methoxy-2′-trifluoromethyl-[1,1′-biphenyl]-4-yl]carbonyl}-N-methyl-N-[(2R,3S,4R,5S)-2,3,4,5,6-pentahydroxyhexyl]-10,11-dihydro-5H-pyrrolo[2,1-c][1,4]benzodiazepine-3-carboxamide], the melting point was 132 to 140 °C (dec.).

Broadly, the melting point is the temperature, or range, at which the solid turns liquid.
